This note sets out measurements from USRE37781E1, “Substituted cyclic carbonyls and derivatives thereof useful as retroviral protease inhibitors” (DuPont Pharmaceuticals Company, priority 1991, dated 2002).

Some results are limits rather than exact numbers.

The first experiment has as its target single-chain tethered dimer of HIV protease (Human immunodeficiency virus 1, UniProt P04585). Briefly: biochemical. Format: biochemical. The arrangement: fused on or other part: A second copy of the same protease unit is joined to the first by a short peptide tether, giving one polypeptide. The settings on record: HIV protease inhibition, HPLC method; Table 2d; read-out: HPLC K1. On the procedure:
HIV Protease Inhibition Assay—HPLC Method
Active protease was prepared as described therein by extraction with 67% acetic acid, dilution 33-fold with water, dialysis against water and then against a “refolding buffer” consisting of 20 mM MES, 1 mM dithiothreitol and 10% glycerol. Protease was stored as a stock preparation at 10 uM in refolding buffer.
Substrate: Peptide of sequence: aminobenzoyl-Ala-Thr-His-Gln-Val-Tyr-Phe(NO2)-Val-Arg-Lys-Ala containing p-nitrophenylalanine, was prepared by solid phase synthesis as previously described Cheng et al., op.cit. Stock solutions of 2 mM substrate were prepared in DMSO.
Inhibitory compounds were dissolved in sufficient DMSO to make 3 mM stock solutions. All further dilutions were prepared in “assay buffer”: 1M NaCl, 50 mM MES, pH 5.5, 1 mM EDTA, 1 mM DTT, […] glycerol.
Enzyme reaction: In a 2 ml screw-cap centrifuge tube were added 50 ul protease (final concentration 0.25 nM) and 0.1 ml inhibitory compound (final concentration […]). After 15 min preincubation at room temperature, the reaction was started with the addition of 0.05 ml substrate (final concentration 5 uM). Incubation was carried out at 30 C. for 1 hr. The reaction was stopped with 1 ml 0.1M ammonium hydroxide.
HPLC measurement of product formation: The product (aminobenzoyl-Ala-Thr-His-Gln-Val-Tyr) was separated from substrate on a Pharmacia MonoQ anion exchange column. The injection volume was 0.2 ml. The mobile phases were: A (20 mM trisHCl, pH 9.0, 0.02% sodium Azide, 10% acetonitrile), B (20 mM tris HCl, pH 9.0, 0.02% sodium azide, 0.5M ammonium formate, 10% acetonitrile). The mobile phases were pumped at 1 ml/min, with a gradient from 0 to 30% B in 5 min, 100% B for 4 min to wash the column, and a re-equilibration for 4 min. The retention time of the product was 3.6 min. Detection with a Shimadzu model RF535 fluorescence monitor was at 330 nm (excitation) and 430 (emission).
As to `O=C1N(Cc2coc(CO)c2)C(Cc2ccccc2)C(O)C(O)C(Cc2ccccc2)N1Cc1coc(CO)c1` (stereo not drawn) [Example 15FP], the Ki is below 0.01 µM.

For the compound `O=C1NC(Cc2ccccc2)C(O)C(O)C(Cc2ccccc2)N1Cc1ccco1` (stereo not drawn) [Example 15FV], the Ki is below 0.01 µM.

The experiment is the same for the next values; noted with them: Table 2e; read-out: K4 HPLC.
`CSCCC1C(O)C(O)C(CCSC)N(Cc2ccccc2)C(=O)N1Cc1ccccc1` (stereo not drawn) [Example 16AA]: the Ki is above 1 µM.

Turning to `CSCCC1C(O)C(O)C(CCSC)N(CC2CC2)C(=O)N1CC1CC1` (stereo not drawn) [Example 16AB], the Ki was above 1 µM.

Regarding `CCCCC1C(O)C(O)C(CCCC)N(Cc2ccccc2)C(=O)N1Cc1ccccc1` (stereo not drawn) [Example 16AG], the Ki is above 1 µM.

Regarding `C=CCCC1C(O)C(O)C(CCC=C)N(Cc2ccccc2)C(=O)N1Cc1ccccc1` (stereo not drawn) [Example 16AK], the Ki is above 1 µM.

For `C=CCCCC1C(O)C(O)C(CCCC=C)N(Cc2ccccc2)C(=O)N1Cc1ccccc1` (stereo not drawn) [Example 16AL], the Ki is above 1 µM.

With `CCC(CC)CC1C(O)C(O)C(CC(CC)CC)N(Cc2ccccc2)C(=O)N1Cc1ccccc1` (stereo not drawn) [Example 16AM], the Ki is 0.01 to 1 µM.

In the case of `O=C1N(Cc2ccccc2)C(CCCCCO)C(O)C(O)C(CCCCCO)N1Cc1ccccc1` (stereo not drawn) [Example 16AN], the Ki was above 1 µM.

With `O=C1N(Cc2ccccc2)C(CCCCO)C(O)C(O)C(CCCCO)N1Cc1ccccc1` (stereo not drawn) [Example 16AO], the Ki was above 1 µM.

Turning to `C=CCN1C(=O)N(CC=C)C(CCCCCCCC)C(O)C(O)C1CCCCCCCC` (stereo not drawn) [Example 16AP], the Ki was in the range of 0.01 to 1 µM.

On to `C=CCN1C(=O)N(CC=C)C(CCCCCC)C(O)C(O)C1CCCCCC` (stereo not drawn) [Example 16AQ], for which the Ki is above 1 µM.

In the case of `C=CCCCC1C(O)C(O)C(CCCC=C)N(CC=C)C(=O)N1CC=C` (stereo not drawn) [Example 16AR], the Ki was above 1 µM.

In the case of `C=CCCC1C(O)C(O)C(CCC=C)N(CC=C)C(=O)N1CC=C` (stereo not drawn) [Example 16AS], the Ki was above 1 µM.

Take `CCCCC1C(O)C(O)C(CCCC)N(Cc2ccc(CO)cc2)C(=O)N1Cc1ccc(CO)cc1` (stereo not drawn) [Example 16AT]: the Ki fell in the range of 0.01 to 1 µM.

Take `C=CCN1C(=O)N(CCCC)C(C)C(O)C(O)C1C` (stereo not drawn) [Example 16F]: the Ki is above 1 µM.

Still in this experiment, the particulars now being: Table 2d; HIV protease inhibition, HPLC method; read-out: HPLC K1.
As for `O=C1N(Cc2cccc(-c3cc[nH]n3)c2)C(Cc2ccccc2)C(O)C(O)C(Cc2ccccc2)N1Cc1cccc(-c2cc[nH]n2)c1` (stereo not drawn) [Example 15XO], the Ki is below 0.01 µM.

Still in this experiment, the particulars now being: Table 2d; class symbols; read-out: HPLC K1.
On to `O=C1N(CC2CC2c2ccccc2)C(Cc2ccccc2)C(O)C(O)C(Cc2ccccc2)N1CC1CC1c1ccccc1` (stereo not drawn) [Example 14H], for which the Ki is 0.01 to 1 µM.

As for `O=C1NC(Cc2ccccc2)C(O)C(O)C(Cc2ccccc2)N1CC1CC1c1ccccc1` (stereo not drawn) [Example 14I], the Ki lay within 0.01 to 1 µM.

Turning to `Cc1cncc(OCc2ccccc2)c1CN1C(=O)N(Cc2c(C)cncc2OCc2ccccc2)C(Cc2ccccc2)C(O)C(O)C1Cc1ccccc1` (stereo not drawn) [Example 14J], the Ki fell in the range of 0.01 to 1 µM.

Staying with this experiment, now noted: read-out: HPLC K1; HIV protease inhibition, HPLC method; Table 2d.
With `C=CC(=C)CN1C(=O)N(CC(=C)C=C)C(Cc2ccccc2)C(O)C(O)C1Cc1ccccc1` (stereo not drawn) [Example 15FX], the Ki lay in the range of 0.01 to 1 µM.

Staying with this experiment, now noted: read-out: K4 HPLC; Table 2e.
`CC(C)CC1C(O)C(O)C(CC(C)C)N(Cc2ccccc2)C(=O)N1Cc1ccccc1` (stereo not drawn) [Example 16AD]: the Ki is below 0.01 µM.

On to `CCCCN1C(=O)N(CCCC)C(CC(C)C)C(O)C(O)C1CC(C)C` (stereo not drawn) [Example 16AE], for which the Ki is 0.01 to 1 µM.

Consider `O=C1N(Cc2ccccc2)C(CCc2ccccc2)C(O)C(O)C(CCc2ccccc2)N1Cc1ccccc1` (stereo not drawn) [Example 16A], for which the Ki lay in the range of 0.01 to 1 µM.

For `C=CCN1C(=O)N(CC=C)C(CCc2ccccc2)C(O)C(O)C1CCc1ccccc1` (stereo not drawn) [Example 16B], the Ki was above 1 µM.

Turning to `C=CCN1C(=O)N(CC=C)C(C(C)C)C(O)C(O)C1C(C)C` (stereo not drawn) [Example 16C], the Ki fell in the range of 0.01 to 1 µM.

Regarding `CC(C)C1C(O)C(O)C(C(C)C)N(CC2CC2)C(=O)N1CC1CC1` (stereo not drawn) [Example 16D], the Ki lay within 0.01 to 1 µM.

Take `C=CCN1C(=O)N(CC=C)C(C)C(O)C(O)C1C` (stereo not drawn) [Example 16E]: the Ki was above 1 µM.

As for `CC1C(O)C(O)C(C)N(Cc2ccccc2)C(=O)N1Cc1ccccc1` (stereo not drawn) [Example 16G], the Ki is above 1 µM.

For `C=CCN1C(=O)N(CC=C)C(CC(C)C)C(O)C(O)C1CC(C)C` (stereo not drawn) [Example 16I], the Ki is below 0.01 µM.
